ChEMBL document CHEMBL5143665, “Discovery and preclinical evaluations of WX-0593, a novel ALK inhibitor targeting crizotinib-resistant mutations” (Bioorg Med Chem Lett, 2022)

Experiments:
[1] = Clearance in mouse at 1 mg/kg, iv; type: ADME, organism-based; details: in vivo
[2] = Volume of distribution at steady state in mouse at 1 mg/kg, iv; type: ADME, organism-based; details: in vivo, read-out: Vdss
[3] = Half-life in mouse at 1 mg/kg, iv; type: ADME, organism-based; details: in vivo
[4] = Cmax in mouse at 10 mg/kg, po; type: ADME, organism-based; design: dose 10 mg/kg, route po; details: in vivo
[5] = AUC (0 to last) in mouse at 10 mg/kg, po; type: ADME, organism-based; design: time 0 - last, dose 10 mg/kg, route po; details: in vivo
[6] = Oral bioavailability in mouse at 10 mg/kg; type: ADME, organism-based; details: in vivo
[7] = system: KARPAS-299; assay: cells; details: Homo sapiens
Description: Antiproliferative activity against human KARPAS-299 cells harbouring wild type ALK assessed as reduction in cell viability by Celltitre-Glo luminescent assay

[8] = system: BaF3; assay: cells; details: Mus musculus
Description: Antiproliferative activity against mouse BaF3 cells harbouring ALK wild type assessed as reduction in cell viability by Celltitre-Glo luminescent assay

[9] = system: BaF3; assay: cells; details: Mus musculus; remark: listed apart in the source
Description: Antiproliferative activity against mouse BaF3 cells harbouring ALK L1196M mutant assessed as reduction in cell viability by Celltitre-Glo luminescent assay

[10] = system: BaF3; assay: cells; details: Mus musculus; remark: listed apart in the source
Description: Antiproliferative activity against mouse BaF3 cells harbouring ALK C1156Y mutant assessed as reduction in cell viability by Celltitre-Glo luminescent assay

[11] = Clearance in Balb/c nude mouse at 1 mg/kg, iv; type: ADME, organism-based; details: in vivo

SMILES | clearance [1] [mL/min/kg] | Vd [2] [L/kg] | half-life [3] [min] | Cmax [4] [ng/mL] | AUC(0-t) [5] [ng·h/mL] | bioavailability [6] [%] | IC50 [7] [nM] | IC50 [8] [nM] | IC50 [9] [nM] | IC50 [10] [nM] | clearance [11] [mL/min/kg]
COc1cc(N2CCC3(CNC3)C2)ccc1Nc1ncc(Cl)c(Nc2ccccc2P(C)(C)=O)n1 | 69 | 3.1 | 66 | 28.7 | 27.7 | 1.2 | 126 |  |  |  | 
COc1cc(N2CCC3(CCN(C)CC3)CC2)ccc1Nc1ncc(Cl)c(Nc2ccc(F)cc2P(C)(C)=O)n1 |  |  |  |  |  |  | 20 | 8 | 18 | 17 | 
COc1cc(N2CCC3(CCN(C)CC3)CC2)ccc1Nc1ncc(Cl)c(Nc2ccccc2P(C)(C)=S)n1 |  |  |  |  |  |  | 30 | 5 | 8 | 12 | 61

Continued, in another order:

clearance [1] [mL/min/kg] | Vd [2] [L/kg] | half-life [3] [min] | Cmax [4] [ng/mL] | AUC(0-t) [5] [ng·h/mL] | bioavailability [6] [%] | IC50 [7] [nM] | IC50 [8] [nM] | IC50 [9] [nM] | IC50 [10] [nM] | SMILES | clearance [11] [mL/min/kg]
20.1 | 1.3 | 216 | 977 | 1630 | 18.5 | 77 |  |  |  | COc1cc(N2CCC3(CCNCC3)CC2)ccc1Nc1ncc(Cl)c(Nc2ccccc2P(C)(C)=O)n1 | 
 |  |  |  |  |  | 87 | 10 | 12 | 15 | COc1cc(N2CCC3(CCN(C)CC3)CC2)c(Cl)cc1Nc1ncc(Cl)c(Nc2ccccc2P(C)(C)=O)n1 | 
 |  |  |  |  |  | 62 |  |  |  | COc1cc(N2CCC3(CCN(C)CC3)CC2)c(C)cc1Nc1ncc(Cl)c(Nc2ccccc2P(C)(C)=O)n1 | 
